According to paper PMC5853558, “De novo identification of lipid II binding lipopeptides with antibacterial activity against vancomycin-resistant bacteria” (Chemical Science, 2017):
Values after ≈ are worked out from the molar mass of the structure shown. *1 amine or outer side, *2 acyl side, *3 side chain or, on linkers, in order; H or OH if unused. Where a SMILES comes first, the peptide text is derived from it. Bridges are numbered along the chain shown (N, C = ends). [ ]: non-standard residue; d: D form. The star is where a group is joined. TBMB = c1c(C[*:1])cc(C[*:3])cc1C[*:2]; NHDecyl = CCCCCCCCCCN*

Each compound was assayed on M. luteus (NCTC2665) (assay: microbe, parasite or virus in culture). Conditions: Supplemental table S6, lipidated phage display hits; n.a. = not active, highest tested conc 64 µg/ml.
Assay type: cell-based, Micrococcus luteus
Procedure: Section 4 Biological and biochemical experiments
4.1 Minimum inhibitory concentration assay
MIC values were determined by using the broth microdilution method. Peptides were dissolved first in DMSO and diluted with broth so that the final peptide concentration was 1024 µg/ml and the DMSO concentration was 4%. Peptide serial dilutions were made in TSB in a polypropylene 96-wells plate using 50 µl volumes. An overnight culture of the organism of interest was diluted to and OD600 of 0.01 and grown until they reach 0.5. The culture was then diluted to 1 x 10^6 CFU/ml and 50 µl of this suspension was added to each well. The highest concentrations were then 512 µg/ml peptide and 2% DMSO. The plates were incubated at the preferred growth temperature of the organism that was used and 250 rpm. […] When […]
determining the MICs of the lipidated peptides, the lipopeptides were first dissolved in DMSO and diluted with TSB so that the peptide concentration was 128 µg/ml and the DMSO concentration was 4%. After inoculation the highest peptide concentration evaluated was 64 µg/ml and the DMSO concentration was 2%. A DMSO control was tested for each strain to ensure the DMSO did not affect the growth of the particular strain. […]

Compound	MIC M. luteus [µg/mL]
CCCCCCCCCCNC(=O)CNC(=O)[C@@H]1CSCc2cc3cc(c2)CSC[C@H](NC(=O)[C@H](Cc2ccc(O)cc2)NC(=O)[C@H](Cc2c[nH]c4ccccc24)NC(=O)[C@H](CC(=O)O)NC(=O)[C@H](C(C)C)NC(=O)[C@@H]2CCCN2C(=O)[C@H](Cc2ccc(O)cc2)NC(=O)[C@@H](NC(=O)[C@H](C)N)CSC3)C(=O)N[C@@H](CC(C)C)C(=O)N[C@@H](Cc2ccccc2)C(=O)N[C@@H](CCC(N)=O)C(=O)N[C@@H]([C@@H](C)O)C(=O)N[C@@H](C(C)C)C(=O)N[C@@H](CC(=O)O)C(=O)N1 [Peptide P6-C10] (H-ACYPVDWYCLFQTVDCG-NHDecyl; linker 2-9-16 via TBMB; N-terminus assumed)	2 (≈ 0.894 µM)

Same assay, conditions: Supplemental table S8; non-lipidated P8 variants; broth microdilution, highest tested 512 µg/ml

Compound	MIC of Ala scan of P8-D against M. luteus [µg/mL]
CC(C)C[C@H]1NC(=O)[C@H](NC(=O)[C@@H](C)N)CSCc2cc3cc(c2)CSC[C@@H](NC(=O)[C@@H](CC(C)C)NC(=O)[C@@H](CC(C)C)NC(=O)[C@@H](CO)NC(=O)[C@@H](CCC(N)=O)NC(=O)[C@@H](CC(C)C)NC1=O)C(=O)N1CCC[C@@H]1C(=O)N[C@H](Cc1ccc(O)cc1)C(=O)N[C@H](CO)C(=O)N[C@H]([C@H](C)O)C(=O)N[C@H](C)C(=O)N[C@H](CCCNC(=N)N)C(=O)N[C@@H](C(=O)NCC(N)=O)CSC3 [Peptide P8-D-H14A] (H-[dA][dC][dL][dL][dQ][dS][dL][dL][dC][dP][dY][dS][dT][dA][dR][dC]G-NH2; linker 2-9-16 via TBMB; N-terminus assumed)	64 to 128
CC(C)C[C@H]1NC(=O)[C@@H](C)NC(=O)[C@H](NC(=O)[C@@H](C)N)CSCc2cc3cc(c2)CSC[C@@H](NC(=O)[C@@H](CC(C)C)NC(=O)[C@@H](CC(C)C)NC(=O)[C@@H](CO)NC(=O)[C@@H](CCC(N)=O)NC1=O)C(=O)N1CCC[C@@H]1C(=O)N[C@H](Cc1ccc(O)cc1)C(=O)N[C@H](CO)C(=O)N[C@H]([C@H](C)O)C(=O)N[C@H](Cc1c[nH]cn1)C(=O)N[C@H](CCCNC(=N)N)C(=O)N[C@@H](C(=O)NCC(N)=O)CSC3 [Peptide P8-D-L3A] (H-[dA][dC][dA][dL][dQ][dS][dL][dL][dC][dP][dY][dS][dT][dH][dR][dC]G-NH2; linker 2-9-16 via TBMB; N-terminus assumed)	> 512
CC(C)C[C@H]1NC(=O)[C@H](NC(=O)[C@@H](C)N)CSCc2cc3cc(c2)CSC[C@@H](NC(=O)[C@@H](CC(C)C)NC(=O)[C@@H](CC(C)C)NC(=O)[C@@H](CO)NC(=O)[C@@H](CCC(N)=O)NC(=O)[C@@H](C)NC1=O)C(=O)N1CCC[C@@H]1C(=O)N[C@H](Cc1ccc(O)cc1)C(=O)N[C@H](CO)C(=O)N[C@H]([C@H](C)O)C(=O)N[C@H](Cc1c[nH]cn1)C(=O)N[C@H](CCCNC(=N)N)C(=O)N[C@@H](C(=O)NCC(N)=O)CSC3 [Peptide P8-D-L4A] (H-[dA][dC][dL][dA][dQ][dS][dL][dL][dC][dP][dY][dS][dT][dH][dR][dC]G-NH2; linker 2-9-16 via TBMB; N-terminus assumed)	> 512
CC(C)C[C@H]1NC(=O)[C@@H](C)NC(=O)[C@@H](CO)NC(=O)[C@@H](CCC(N)=O)NC(=O)[C@@H](CC(C)C)NC(=O)[C@@H](CC(C)C)NC(=O)[C@H](NC(=O)[C@@H](C)N)CSCc2cc3cc(c2)CSC[C@@H](NC1=O)C(=O)N1CCC[C@@H]1C(=O)N[C@H](Cc1ccc(O)cc1)C(=O)N[C@H](CO)C(=O)N[C@H]([C@H](C)O)C(=O)N[C@H](Cc1c[nH]cn1)C(=O)N[C@H](CCCNC(=N)N)C(=O)N[C@@H](C(=O)NCC(N)=O)CSC3 [Peptide P8-D-L7A] (H-[dA][dC][dL][dL][dQ][dS][dA][dL][dC][dP][dY][dS][dT][dH][dR][dC]G-NH2; linker 2-9-16 via TBMB; N-terminus assumed)	512
CC(C)C[C@H]1NC(=O)[C@@H](CO)NC(=O)[C@@H](CCC(N)=O)NC(=O)[C@@H](CC(C)C)NC(=O)[C@@H](CC(C)C)NC(=O)[C@H](NC(=O)[C@@H](C)N)CSCc2cc3cc(c2)CSC[C@@H](NC(=O)[C@@H](C)NC1=O)C(=O)N1CCC[C@@H]1C(=O)N[C@H](Cc1ccc(O)cc1)C(=O)N[C@H](CO)C(=O)N[C@H]([C@H](C)O)C(=O)N[C@H](Cc1c[nH]cn1)C(=O)N[C@H](CCCNC(=N)N)C(=O)N[C@@H](C(=O)NCC(N)=O)CSC3 [Peptide P8-D-L8A] (H-[dA][dC][dL][dL][dQ][dS][dL][dA][dC][dP][dY][dS][dT][dH][dR][dC]G-NH2; linker 2-9-16 via TBMB; N-terminus assumed)	128 to 256
CC(C)C[C@H]1NC(=O)[C@H](NC(=O)[C@@H](C)N)CSCc2cc3cc(c2)CSC[C@@H](NC(=O)[C@@H](CC(C)C)NC(=O)[C@@H](CC(C)C)NC(=O)[C@@H](CO)NC(=O)[C@@H](CCC(N)=O)NC(=O)[C@@H](CC(C)C)NC1=O)C(=O)N[C@H](C)C(=O)N[C@H](Cc1ccc(O)cc1)C(=O)N[C@H](CO)C(=O)N[C@H]([C@H](C)O)C(=O)N[C@H](Cc1c[nH]cn1)C(=O)N[C@H](CCCNC(=N)N)C(=O)N[C@@H](C(=O)NCC(N)=O)CSC3 [Peptide P8-D-P10A] (H-[dA][dC][dL][dL][dQ][dS][dL][dL][dC][dA][dY][dS][dT][dH][dR][dC]G-NH2; linker 2-9-16 via TBMB; N-terminus assumed)	128
CC(C)C[C@H]1NC(=O)[C@@H](CC(C)C)NC(=O)[C@H](NC(=O)[C@@H](C)N)CSCc2cc3cc(c2)CSC[C@@H](NC(=O)[C@@H](CC(C)C)NC(=O)[C@@H](CC(C)C)NC(=O)[C@@H](CO)NC(=O)[C@@H](C)NC1=O)C(=O)N1CCC[C@@H]1C(=O)N[C@H](Cc1ccc(O)cc1)C(=O)N[C@H](CO)C(=O)N[C@H]([C@H](C)O)C(=O)N[C@H](Cc1c[nH]cn1)C(=O)N[C@H](CCCNC(=N)N)C(=O)N[C@@H](C(=O)NCC(N)=O)CSC3 [Peptide P8-D-Q5A] (H-[dA][dC][dL][dL][dA][dS][dL][dL][dC][dP][dY][dS][dT][dH][dR][dC]G-NH2; linker 2-9-16 via TBMB; N-terminus assumed)	> 512

Same assay, conditions: Table 1; non-lipidated bicyclic peptides; broth microdilution in TSB, 16 h, read visually; n.a. = no activity, highest tested concentration 512 μg mL^–1

Compound	MIC against M. luteus [μg mL^–1]
CC[C@H](C)[C@@H]1NC(=O)[C@@H]2CSCc3cc(cc(c3)CSC[C@@H](C(=O)NCC(N)=O)NC(=O)[C@H](CCCNC(=N)N)NC(=O)[C@H]([C@@H](C)CC)NC(=O)[C@H](CC(N)=O)NC(=O)[C@H](C)NC(=O)[C@H](CO)NC1=O)CSC[C@H](NC(=O)[C@H](C)N)C(=O)N[C@@H](CCCNC(=N)N)C(=O)N1CCC[C@H]1C(=O)N[C@@H](CCC(N)=O)C(=O)N[C@@H](CCCCN)C(=O)N[C@@H](Cc1ccccc1)C(=O)N[C@@H](CC(N)=O)C(=O)N2 [Peptide P4] (H-ACRPQKFNCISANIRCG-NH2; linker 2-9-16 via TBMB; N-terminus assumed)	64
CC(C)C[C@@H]1NC(=O)[C@@H]2CSCc3cc(cc(c3)CSC[C@@H](C(=O)NCC(N)=O)NC(=O)[C@H](CC(=O)O)NC(=O)[C@H](C(C)C)NC(=O)[C@H]([C@@H](C)O)NC(=O)[C@H](CCC(N)=O)NC(=O)[C@H](Cc3ccccc3)NC1=O)CSC[C@H](NC(=O)[C@H](C)N)C(=O)N[C@@H](Cc1ccc(O)cc1)C(=O)N1CCC[C@H]1C(=O)N[C@@H](C(C)C)C(=O)N[C@@H](CC(=O)O)C(=O)N[C@@H](Cc1c[nH]c3ccccc13)C(=O)N[C@@H](Cc1ccc(O)cc1)C(=O)N2 [Peptide P6] (H-ACYPVDWYCLFQTVDCG-NH2; linker 2-9-16 via TBMB; N-terminus assumed)	128
